Results: US20250136595A1, “ACYLATED HETEROCYCLIC QUINAZOLINE DERIVATIVES AS INHIBITORS OF ERBB2” (Enliven Inc., priority 2022, published 2025)

Experiments:
Ba/F3 ERBB2 YVMA = Ba/F3 ERBB2 YVMA (Homo sapiens, UniProt P04626, DUP772-775, cells depend on it); assay: Cell viability assay (CellTiter Glo) in Ba/F3 cells engineered to express ERBB2 YVMA; type: cell-based, mouse; conditions: Ba/F3 cells expressing human ERBB2 YVMA mutant, 72 hours, % viability, read-out: Ba/F3 ERBB2 YVMA IC50
Protocol: Cells were treated with compounds, and cell viability was measured as a metric of kinase inhibition.
The Ba/F3 cell line is IL-3-dependent mouse cell line derived from the C3H mouse strain. Ba/F3 cell lines were engineered to express human ERBB2 or EGFR kinases, rendering the cells IL-3 independent. The lines were generated via retroviral transduction utilizing a Moloney murine leukemia virus (MMLV) promoter, and constructs are stably integrated into the cell genome. The sequences of the ERBB2 and EGFR genes used were NCBI Reference Sequences NM_004448.3 and NM_005228.3, respectively.
Similarly, Ba/F3 cell lines engineered to express EGFR, ERBB2, or ERBB2 mutants were grown, harvested, counted and seeded at 3000 cells per well in 96-well plates for the data sets shown in Tables B3-B4. A subset of wells contained media only (low control, “LC”).
Table B1 provides the growth media and number of cells seeded per well for the each cell line.
Compounds were dissolved in DMSO and serially diluted. Serially-diluted compound or a DMSO only control (high control, “HC”) was added to the plated cells in each well. […] The final proportion of DMSO never exceeded 0.1%.
Plates were placed in a 37° C., 5% CO2 incubator for 72 hours. Plates were then removed from the incubator and equilibrated for 15 minutes at room temperature. 40 μl of CellTiter Glo reagent (Promega) was added to measure the relative level of metabolically active cells by quantifying intracellular ATP concentrations. Plates were incubated for 30 minutes at room temperature, and luminescence was measured. Percent viability was normalized to a vehicle control only using the following formula: % viability=100×(Lumsample−LumLC)/(LumHC−LumLC). Graphical curves were fitted using a nonlinear regression model with a sigmoidal dose response.

[1] = target: T1, phosphorylated ERBB2 (pERBB2) (Homo sapiens, UniProt P04626); assay: Detection of phosphorylated ERBB2 (pERBB2) by ELISA in BT-474 cells; type: cell-based; conditions: four hour incubation with compound
T1 construct: endogenous in cells; host or cells: BT-474
T1 sequence (P04626 23-1255): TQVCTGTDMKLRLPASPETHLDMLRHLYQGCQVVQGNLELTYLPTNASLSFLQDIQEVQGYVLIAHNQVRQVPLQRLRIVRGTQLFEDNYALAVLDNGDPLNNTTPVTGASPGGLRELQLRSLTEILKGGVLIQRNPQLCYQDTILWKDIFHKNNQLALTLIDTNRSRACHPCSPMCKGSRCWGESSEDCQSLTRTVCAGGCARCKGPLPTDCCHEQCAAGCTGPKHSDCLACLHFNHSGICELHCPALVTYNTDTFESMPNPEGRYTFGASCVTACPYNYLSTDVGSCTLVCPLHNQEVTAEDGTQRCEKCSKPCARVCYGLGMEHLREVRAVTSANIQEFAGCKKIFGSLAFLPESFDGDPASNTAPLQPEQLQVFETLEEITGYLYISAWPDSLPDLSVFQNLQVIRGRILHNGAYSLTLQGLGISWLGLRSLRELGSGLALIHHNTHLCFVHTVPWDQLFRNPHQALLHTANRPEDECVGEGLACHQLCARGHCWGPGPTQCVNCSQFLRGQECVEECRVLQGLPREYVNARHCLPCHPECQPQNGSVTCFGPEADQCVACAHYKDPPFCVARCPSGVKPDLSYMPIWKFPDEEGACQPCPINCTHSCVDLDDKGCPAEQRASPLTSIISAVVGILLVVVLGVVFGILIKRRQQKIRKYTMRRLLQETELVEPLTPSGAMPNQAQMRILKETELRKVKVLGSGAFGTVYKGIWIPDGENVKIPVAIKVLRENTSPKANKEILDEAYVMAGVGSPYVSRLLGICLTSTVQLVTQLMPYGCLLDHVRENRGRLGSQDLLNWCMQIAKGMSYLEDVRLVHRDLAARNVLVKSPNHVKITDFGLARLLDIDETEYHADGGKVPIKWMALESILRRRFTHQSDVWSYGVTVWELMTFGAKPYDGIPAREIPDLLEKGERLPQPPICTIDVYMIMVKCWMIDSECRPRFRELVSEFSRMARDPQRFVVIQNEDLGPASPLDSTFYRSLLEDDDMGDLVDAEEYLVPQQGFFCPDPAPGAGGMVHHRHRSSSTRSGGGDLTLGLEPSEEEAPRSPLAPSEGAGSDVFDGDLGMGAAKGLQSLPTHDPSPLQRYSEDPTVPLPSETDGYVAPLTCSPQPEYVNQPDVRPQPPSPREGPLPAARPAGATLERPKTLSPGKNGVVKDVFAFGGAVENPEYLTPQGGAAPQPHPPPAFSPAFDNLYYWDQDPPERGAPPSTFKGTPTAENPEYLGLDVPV
Protocol: BT-474 cells were seeded into a 96-well at 2.0*10^4 cells/100 μl/well. Compounds were dissolved and serially diluted in DMSO. The compounds were then were added, mixed, and incubated for four hours at 37° C., 5% CO2. Compounds were added using four-fold dilutions at final concentrations ranging from 10 μM to 0.01 nM. Following the four hour incubation with compounds, cell lysates were prepared. Plates were centrifuged for 5 min at 3000 RPM, and supernatant was removed from each well. Cells were washed 3 times by resuspension in 150 μl PBS, followed by centrifugation and removal of the supernatant, as above. […] Cells were incubated with lysis buffer for 1 hour at 4° C., and then stored at -80° C. Enzyme-linked immunosorbent assays (ELISA) were performed to measure phosphorylated ERBB2 levels. […] The next day, plates were washed with PBS+0.05% Tween20 (PBST). 150 μl of 5% BSA blocking solution was added for 1 hour at room temperature, with shaking. Plates were washed with PBST. Cell lysates were thawed and 100 μl of lysate was added to the ELISA plate. The plates were incubated for 2 hours at room temperature, with shaking. […] Plates were incubated for 1 hour at room temperature, with shaking. Plates were then washed with PBST, and 100 μl TMB substrate solution (R&D Systems, cat #DY999) was added. Plate were incubated in the dark for 20 minutes at room temperature. 50 μl of Stop solution (R&D Systems, cat #DY994) (50 μl) was added to each well and mixed. Optical density at 450 nm was read on an EnSpire plate reader (Perkin Elmer). The remaining kinase activity by calculated using the following formula: % Relative activity=100×([…]). The low and high control values (“LC” and “HC”) were generated from lysate from wells without cells or with cells treated with 0.1% DMSO, respectively.

[2] = target: T2, phosphorylated EGFR (pEGFR) (Homo sapiens, UniProt P00533); assay: Detection of phosphorylated EGFR (pEGFR) in EGF-stimulated A431 cells (AlphaLISA); type: cell-based; conditions: A431 cells (10% FBS), 4 hours incubation, EGF 30 ng/mL for 10 minutes
T2 construct: performed to measure phosphorylated EGFR levels using A431 cells; endogenous in cells; host or cells: A431
T2 sequence (P00533 25-1210): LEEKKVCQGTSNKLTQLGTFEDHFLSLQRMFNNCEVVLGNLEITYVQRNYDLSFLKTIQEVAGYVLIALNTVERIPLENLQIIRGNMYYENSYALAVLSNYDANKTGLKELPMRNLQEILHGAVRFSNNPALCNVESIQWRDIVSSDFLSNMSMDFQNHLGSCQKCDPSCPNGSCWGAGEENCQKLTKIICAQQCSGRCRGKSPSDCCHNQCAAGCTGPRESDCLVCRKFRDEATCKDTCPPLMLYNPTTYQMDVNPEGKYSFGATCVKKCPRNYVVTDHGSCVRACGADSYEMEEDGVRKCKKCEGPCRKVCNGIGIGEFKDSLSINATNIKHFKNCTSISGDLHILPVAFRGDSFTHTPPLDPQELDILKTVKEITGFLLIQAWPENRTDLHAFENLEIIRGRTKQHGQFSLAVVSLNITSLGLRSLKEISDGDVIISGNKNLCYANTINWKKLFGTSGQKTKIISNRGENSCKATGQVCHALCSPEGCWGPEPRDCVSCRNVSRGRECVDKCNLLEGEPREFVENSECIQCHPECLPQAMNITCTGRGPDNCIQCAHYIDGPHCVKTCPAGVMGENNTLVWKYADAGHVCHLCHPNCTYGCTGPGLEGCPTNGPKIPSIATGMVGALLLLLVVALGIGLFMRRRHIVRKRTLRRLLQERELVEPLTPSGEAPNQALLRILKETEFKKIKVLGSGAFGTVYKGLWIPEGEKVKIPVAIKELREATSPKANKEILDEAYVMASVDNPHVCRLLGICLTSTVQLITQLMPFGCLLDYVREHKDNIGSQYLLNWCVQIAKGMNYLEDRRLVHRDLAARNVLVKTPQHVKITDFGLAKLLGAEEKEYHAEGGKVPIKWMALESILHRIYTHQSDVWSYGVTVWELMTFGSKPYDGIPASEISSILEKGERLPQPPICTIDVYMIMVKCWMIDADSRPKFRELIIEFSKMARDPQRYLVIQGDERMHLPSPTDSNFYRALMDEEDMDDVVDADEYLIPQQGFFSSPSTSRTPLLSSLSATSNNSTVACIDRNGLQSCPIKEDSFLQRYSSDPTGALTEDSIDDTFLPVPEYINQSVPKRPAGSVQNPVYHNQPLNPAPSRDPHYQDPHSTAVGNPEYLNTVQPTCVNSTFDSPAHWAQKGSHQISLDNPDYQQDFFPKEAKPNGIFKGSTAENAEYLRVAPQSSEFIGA
Protocol: Enzyme-linked immunosorbent assays (ELISA) were performed to measure phosphorylated EGFR levels using A431 cells (10% FBS). A431 (1.0*10^4 cells/40 μl/well) cells were seeded in 384 well. Compounds were dissolved in DMSO, serially diluted in DMSO and then were added, mixed, and incubated for 4 hours at 37° C., 5% CO2. Following the 4-hours incubation, cells were stimulated for 10 minutes with EGF (Invitrogen, cat #PHG0311) at a final concentration of 30 ng/mL in the incubator. The media was aspirated and cells were lysed in 10 μL lysis buffer with protease and phosphatase inhibitors (PerkinElmer, cat #ALSU-PEGFR-A50K). The plates were placed on a shaker for 5 minutes and then incubated for 30 min at 4° C. for complete lysis. The lysate was transferred to an Optiplate (Perkin Elmer, cat #6007290).
Acceptor mix (PerkinElmer, cat #ALSU-PEGFR-A50K) was prepared just before use and 5 μL was dispensed to all the wells, followed by a 1.5-2 h incubation at room temperature in dark. The donor mix (PerkinElmer, cat #ALSU-PEGFR-A50K) was prepared under low light conditions prior to use and 5 μl of donor mix was added to all the wells under subdued lighting or green filters. The plates were placed on a shaker for 5 min, sealed, and incubated overnight at room temperature in dark. Plates were read on the Envision (PerkinElmer) using standard AlphaLISA settings.
The percentage of inhibition on EGFR phosphorylation was calculated following equation: % Inhibition=100×(LumHC−LumSample)/(LumHC−LumLC). The low and high controls (LC/HC) are generated from lysate from wells with cells treated with DMSO or […] Staurosporine (BioAustralis, cat #BIA-S1086), […]. IC50 values were calculated by fitting the Curve using XLfit (v5.3.1.3), equation 201: Y=Bottom+ (Top−Bottom)/(1+10^((LogIC50−X)*HillSlope)).

Ba/F3 ERBB2 YVMA, sequence (P04626 with tags, fused parts or gaps DUP772-775): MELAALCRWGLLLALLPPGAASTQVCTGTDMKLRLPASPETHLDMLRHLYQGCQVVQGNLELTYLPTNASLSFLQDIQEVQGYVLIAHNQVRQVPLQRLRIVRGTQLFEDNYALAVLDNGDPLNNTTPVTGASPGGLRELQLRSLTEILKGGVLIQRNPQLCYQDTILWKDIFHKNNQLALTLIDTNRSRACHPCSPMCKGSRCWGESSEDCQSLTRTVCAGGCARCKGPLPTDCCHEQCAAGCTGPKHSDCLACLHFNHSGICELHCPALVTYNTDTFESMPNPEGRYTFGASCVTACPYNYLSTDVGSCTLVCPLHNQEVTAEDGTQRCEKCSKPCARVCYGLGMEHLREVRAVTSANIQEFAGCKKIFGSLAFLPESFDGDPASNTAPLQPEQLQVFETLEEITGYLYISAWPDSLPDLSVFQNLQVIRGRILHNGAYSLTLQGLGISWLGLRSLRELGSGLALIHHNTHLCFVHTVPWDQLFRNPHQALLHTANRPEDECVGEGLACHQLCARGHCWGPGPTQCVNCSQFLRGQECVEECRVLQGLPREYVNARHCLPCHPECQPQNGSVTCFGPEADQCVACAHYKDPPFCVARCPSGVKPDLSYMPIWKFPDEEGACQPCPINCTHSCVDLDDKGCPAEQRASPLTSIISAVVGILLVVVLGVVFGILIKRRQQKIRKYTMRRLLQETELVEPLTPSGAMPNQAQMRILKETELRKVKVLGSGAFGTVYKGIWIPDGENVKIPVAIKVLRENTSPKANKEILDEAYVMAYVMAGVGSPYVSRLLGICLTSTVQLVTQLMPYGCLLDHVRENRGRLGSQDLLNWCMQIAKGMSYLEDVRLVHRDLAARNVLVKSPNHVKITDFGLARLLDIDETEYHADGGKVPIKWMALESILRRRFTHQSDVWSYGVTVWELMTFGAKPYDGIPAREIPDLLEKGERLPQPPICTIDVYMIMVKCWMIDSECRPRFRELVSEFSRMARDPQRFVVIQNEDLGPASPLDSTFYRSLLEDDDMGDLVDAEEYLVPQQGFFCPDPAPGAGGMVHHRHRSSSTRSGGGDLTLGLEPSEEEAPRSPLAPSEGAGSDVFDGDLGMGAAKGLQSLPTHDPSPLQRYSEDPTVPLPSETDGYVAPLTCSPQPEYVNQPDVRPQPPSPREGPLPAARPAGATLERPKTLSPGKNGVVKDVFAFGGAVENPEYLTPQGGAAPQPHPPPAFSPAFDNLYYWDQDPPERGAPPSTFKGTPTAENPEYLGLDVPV

| Structure (SMILES) | IC50 [1] [nM] | IC50 [2] [nM] | GI50 (Ba/F3 ERBB2 YVMA) [nM] |
| --- | --- | --- | --- |
| C=CC(=O)N1CCN(c2cc3c(Nc4ccc(OC5CCN(C(=O)C6CCCC6)CC5)c(C)c4)ncnc3cn2)CC1 [Compound 2, 1-(4-(4-((4-((1-(cyclopentanecarbonyl)piperidin-4-yl)oxy)-3-methylphenyl)amino)pyrido[3,4-d]pyrimidin-6-yl)piperazin-1-yl)prop-2-en-1-one] | 48.2 | 2690 | 20.3 |
| C=CC(=O)N1CCN(c2cc3c(Nc4ccc(OC5CCN(C(=O)CC(C)(C)C)CC5)c(C)c4)ncnc3cn2)CC1 [Compound 3, 3,3-dimethyl-1-{4-[2-methyl-4-({6-[4-(prop-2-enoyl)piperazin-1-yl]pyrido[3,4-d]pyrimidin-4-yl}amino)phenoxy]piperidin-1-yl}butan-1-one] | 43 | 1680 | 40.2 |
| C=CC(=O)N1CCN(c2ccc3ncnc(Nc4ccc(Oc5ccn6ncnc6c5)c(C)c4)c3c2)CC1 [Compound 7, 1-(4-{4-[(3-methyl-4-{[1,2,4]triazolo[1,5-a]pyridin-7-yloxy}phenyl)amino]quinazolin-6-yl}piperazin-1-yl)prop-2-en-1-one] | 13 | 694 | 8.65 |
| CC#CC(=O)N1CCN(c2ccc3ncnc(Nc4ccc(Oc5ccn6ncnc6c5)c(C)c4)c3n2)CC1 [Compound 8, 1-(4-{4-[(3-methyl-4-{[1,2,4]triazolo[1,5-a]pyridin-7-yloxy}phenyl)amino]pyrido[3,2-d]pyrimidin-6-yl}piperazin-1-yl)but-2-yn-1-one] | 27.1 | 5170 | 18.9 |
| CC#CC(=O)N1C2CC1CN(c1ccc3ncnc(Nc4ccc(Oc5ccn6ncnc6c5)c(C)c4)c3n1)C2 [Compound 29, 1-(3-{4-[(3-methyl-4-{[1,2,4]triazolo[1,5-a]pyridin-7-yloxy}phenyl)amino]pyrido[3,2-d]pyrimidin-6-yl}-3,6-diazabicyclo[3.1.1]heptan-6-yl)but-2-yn-1-one] | – | 5430 | 35.9 |
| Cc1cc(Nc2ncnc3ccc(NC4=NC(C)(C)CO4)cc23)ccc1Oc1ccn2ncnc2c1 [Tucatinib, tucatinib, reference compound] | – | – | 356 |

Further lines, with some results ahead:

| IC50 [1] [nM] | IC50 [2] [nM] | Structure (SMILES) | GI50 (Ba/F3 ERBB2 YVMA) [nM] |
| --- | --- | --- | --- |
| 5.68 | 328 | C=CC(=O)N1CC[C@H](Oc2ccc3ncnc(Nc4ccc(Oc5ccn6ncnc6c5)c(C)c4)c3c2)C1 [Compound 1, (S)-1-(3-((4-((4-([1,2,4]triazolo[1,5-a]pyridin-7-yloxy)-3-methylphenyl)amino)quinazolin-6-yl)oxy)pyrrolidin-1-yl)prop-2-en-1-one] | 8.98 |
| 8.44 | 371 | C=CC(=O)N1CCN(c2ccc3ncnc(Nc4ccc(Oc5ccn6ncnc6c5)c(C)c4)c3n2)CC1 [Compound 4, 1-(4-{4-[(3-methyl-4-{[1,2,4]triazolo[1,5-a]pyridin-7-yloxy}phenyl)amino]pyrido[3,2-d]pyrimidin-6-yl}piperazin-1-yl)prop-2-en-1-one] | 8.19 |
| 17 | 476 | C=CC(=O)N1CC2CC(C1)N2c1ccc2ncnc(Nc3ccc(Oc4ccn5ncnc5c4)c(C)c3)c2n1 [Compound 5, 1-(6-{4-[(3-methyl-4-{[1,2,4]triazolo[1,5-a]pyridin-7-yloxy}phenyl)amino]pyrido[3,2-d]pyrimidin-6-yl}-3,6-diazabicyclo[3.1.1]heptan-3-yl)prop-2-en-1-one] | 18 |
| 13.9 | 134 | C=CC(=O)N1CC2CC1CN2c1ccc2ncnc(Nc3ccc(Oc4ccn5ncnc5c4)c(C)c3)c2n1 (stereo not drawn) [Compound 6, 1-(5-{4-[(3-methyl-4-{[1,2,4]triazolo[1,5-a]pyridin-7-yloxy}phenyl)amino]pyrido[3,2-d]pyrimidin-6-yl}-2,5-diazabicyclo[2.2.1]heptan-2-yl)prop-2-en-1-one] | 5.65 |
